{"source": "paper doi:10.1101/2021.02.21.432137v1", "about": "(biorxiv, 2021)", "conditions_in_all_cases": "binder", "key": {"NUAK1": {"target": "T1, NUAK1 (Homo sapiens, UniProt O60285)", "T1 sequence (O60285 1-661)": "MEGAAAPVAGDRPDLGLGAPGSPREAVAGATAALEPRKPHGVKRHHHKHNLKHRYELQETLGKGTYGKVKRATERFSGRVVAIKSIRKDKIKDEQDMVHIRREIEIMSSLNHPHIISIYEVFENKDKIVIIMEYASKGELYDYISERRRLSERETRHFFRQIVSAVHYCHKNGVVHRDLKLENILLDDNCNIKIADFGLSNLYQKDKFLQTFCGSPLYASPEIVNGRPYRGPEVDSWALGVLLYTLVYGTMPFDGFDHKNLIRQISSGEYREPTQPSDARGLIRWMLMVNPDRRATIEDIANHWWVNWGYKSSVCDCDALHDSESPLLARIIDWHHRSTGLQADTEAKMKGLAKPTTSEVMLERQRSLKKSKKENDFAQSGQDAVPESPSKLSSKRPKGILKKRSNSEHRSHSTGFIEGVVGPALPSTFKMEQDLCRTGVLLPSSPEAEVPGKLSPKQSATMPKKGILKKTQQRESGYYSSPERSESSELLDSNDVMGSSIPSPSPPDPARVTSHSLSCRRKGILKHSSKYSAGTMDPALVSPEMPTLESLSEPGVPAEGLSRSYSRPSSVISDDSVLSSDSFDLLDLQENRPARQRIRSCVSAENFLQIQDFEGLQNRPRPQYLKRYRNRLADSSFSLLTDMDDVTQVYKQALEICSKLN"}, "JAK3": {"target": "T2, JAK3 (Homo sapiens, UniProt P52333)", "T2 sequence (P52333 1-1124)": "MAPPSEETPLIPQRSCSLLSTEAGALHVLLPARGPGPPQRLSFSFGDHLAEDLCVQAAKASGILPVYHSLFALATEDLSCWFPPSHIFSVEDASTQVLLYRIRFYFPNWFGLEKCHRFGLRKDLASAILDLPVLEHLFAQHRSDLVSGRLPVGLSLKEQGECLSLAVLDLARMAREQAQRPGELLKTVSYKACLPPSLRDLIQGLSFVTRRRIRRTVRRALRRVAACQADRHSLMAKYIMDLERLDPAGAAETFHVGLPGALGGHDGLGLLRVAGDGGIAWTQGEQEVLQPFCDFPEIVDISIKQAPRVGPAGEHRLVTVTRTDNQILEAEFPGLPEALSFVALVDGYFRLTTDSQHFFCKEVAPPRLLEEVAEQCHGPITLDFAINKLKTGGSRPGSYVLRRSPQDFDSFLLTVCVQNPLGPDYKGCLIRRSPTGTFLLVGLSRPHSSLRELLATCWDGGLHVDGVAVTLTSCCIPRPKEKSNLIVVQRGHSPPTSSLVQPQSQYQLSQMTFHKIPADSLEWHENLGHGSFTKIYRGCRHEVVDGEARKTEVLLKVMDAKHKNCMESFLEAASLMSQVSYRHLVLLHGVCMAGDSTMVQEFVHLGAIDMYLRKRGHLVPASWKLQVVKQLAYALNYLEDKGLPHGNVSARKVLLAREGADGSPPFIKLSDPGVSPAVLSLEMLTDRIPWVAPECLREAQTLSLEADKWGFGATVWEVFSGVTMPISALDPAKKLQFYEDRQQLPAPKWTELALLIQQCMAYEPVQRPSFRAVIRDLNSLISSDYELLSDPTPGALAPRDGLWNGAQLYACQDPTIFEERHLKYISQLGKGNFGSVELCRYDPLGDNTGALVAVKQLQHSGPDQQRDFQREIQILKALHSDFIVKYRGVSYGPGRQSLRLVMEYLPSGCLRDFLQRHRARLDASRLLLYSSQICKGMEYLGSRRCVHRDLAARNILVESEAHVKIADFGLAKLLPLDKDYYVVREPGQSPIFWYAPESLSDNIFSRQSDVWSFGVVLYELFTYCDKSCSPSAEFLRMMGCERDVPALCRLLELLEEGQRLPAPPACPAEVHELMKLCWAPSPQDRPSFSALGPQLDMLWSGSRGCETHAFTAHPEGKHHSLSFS"}, "CSNK2A1": {"target": "CSNK2A1 (Homo sapiens, UniProt P68400)", "sequence (P68400 whole entry)": "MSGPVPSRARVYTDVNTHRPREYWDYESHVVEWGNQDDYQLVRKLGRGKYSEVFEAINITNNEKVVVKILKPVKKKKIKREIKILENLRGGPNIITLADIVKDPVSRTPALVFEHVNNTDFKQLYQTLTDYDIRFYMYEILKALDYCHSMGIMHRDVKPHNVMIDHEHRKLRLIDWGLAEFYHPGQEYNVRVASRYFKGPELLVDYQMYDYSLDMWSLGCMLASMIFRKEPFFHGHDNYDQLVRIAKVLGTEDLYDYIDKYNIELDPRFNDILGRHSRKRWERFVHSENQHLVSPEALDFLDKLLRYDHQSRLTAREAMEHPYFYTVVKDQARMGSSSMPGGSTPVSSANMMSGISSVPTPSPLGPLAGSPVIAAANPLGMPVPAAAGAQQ"}, "LRRK2 (G2019S)": {"target": "LRRK2 (G2019S) (Homo sapiens, UniProt Q5S007, G2019S)", "sequence (Q5S007 whole entry G2019S)": "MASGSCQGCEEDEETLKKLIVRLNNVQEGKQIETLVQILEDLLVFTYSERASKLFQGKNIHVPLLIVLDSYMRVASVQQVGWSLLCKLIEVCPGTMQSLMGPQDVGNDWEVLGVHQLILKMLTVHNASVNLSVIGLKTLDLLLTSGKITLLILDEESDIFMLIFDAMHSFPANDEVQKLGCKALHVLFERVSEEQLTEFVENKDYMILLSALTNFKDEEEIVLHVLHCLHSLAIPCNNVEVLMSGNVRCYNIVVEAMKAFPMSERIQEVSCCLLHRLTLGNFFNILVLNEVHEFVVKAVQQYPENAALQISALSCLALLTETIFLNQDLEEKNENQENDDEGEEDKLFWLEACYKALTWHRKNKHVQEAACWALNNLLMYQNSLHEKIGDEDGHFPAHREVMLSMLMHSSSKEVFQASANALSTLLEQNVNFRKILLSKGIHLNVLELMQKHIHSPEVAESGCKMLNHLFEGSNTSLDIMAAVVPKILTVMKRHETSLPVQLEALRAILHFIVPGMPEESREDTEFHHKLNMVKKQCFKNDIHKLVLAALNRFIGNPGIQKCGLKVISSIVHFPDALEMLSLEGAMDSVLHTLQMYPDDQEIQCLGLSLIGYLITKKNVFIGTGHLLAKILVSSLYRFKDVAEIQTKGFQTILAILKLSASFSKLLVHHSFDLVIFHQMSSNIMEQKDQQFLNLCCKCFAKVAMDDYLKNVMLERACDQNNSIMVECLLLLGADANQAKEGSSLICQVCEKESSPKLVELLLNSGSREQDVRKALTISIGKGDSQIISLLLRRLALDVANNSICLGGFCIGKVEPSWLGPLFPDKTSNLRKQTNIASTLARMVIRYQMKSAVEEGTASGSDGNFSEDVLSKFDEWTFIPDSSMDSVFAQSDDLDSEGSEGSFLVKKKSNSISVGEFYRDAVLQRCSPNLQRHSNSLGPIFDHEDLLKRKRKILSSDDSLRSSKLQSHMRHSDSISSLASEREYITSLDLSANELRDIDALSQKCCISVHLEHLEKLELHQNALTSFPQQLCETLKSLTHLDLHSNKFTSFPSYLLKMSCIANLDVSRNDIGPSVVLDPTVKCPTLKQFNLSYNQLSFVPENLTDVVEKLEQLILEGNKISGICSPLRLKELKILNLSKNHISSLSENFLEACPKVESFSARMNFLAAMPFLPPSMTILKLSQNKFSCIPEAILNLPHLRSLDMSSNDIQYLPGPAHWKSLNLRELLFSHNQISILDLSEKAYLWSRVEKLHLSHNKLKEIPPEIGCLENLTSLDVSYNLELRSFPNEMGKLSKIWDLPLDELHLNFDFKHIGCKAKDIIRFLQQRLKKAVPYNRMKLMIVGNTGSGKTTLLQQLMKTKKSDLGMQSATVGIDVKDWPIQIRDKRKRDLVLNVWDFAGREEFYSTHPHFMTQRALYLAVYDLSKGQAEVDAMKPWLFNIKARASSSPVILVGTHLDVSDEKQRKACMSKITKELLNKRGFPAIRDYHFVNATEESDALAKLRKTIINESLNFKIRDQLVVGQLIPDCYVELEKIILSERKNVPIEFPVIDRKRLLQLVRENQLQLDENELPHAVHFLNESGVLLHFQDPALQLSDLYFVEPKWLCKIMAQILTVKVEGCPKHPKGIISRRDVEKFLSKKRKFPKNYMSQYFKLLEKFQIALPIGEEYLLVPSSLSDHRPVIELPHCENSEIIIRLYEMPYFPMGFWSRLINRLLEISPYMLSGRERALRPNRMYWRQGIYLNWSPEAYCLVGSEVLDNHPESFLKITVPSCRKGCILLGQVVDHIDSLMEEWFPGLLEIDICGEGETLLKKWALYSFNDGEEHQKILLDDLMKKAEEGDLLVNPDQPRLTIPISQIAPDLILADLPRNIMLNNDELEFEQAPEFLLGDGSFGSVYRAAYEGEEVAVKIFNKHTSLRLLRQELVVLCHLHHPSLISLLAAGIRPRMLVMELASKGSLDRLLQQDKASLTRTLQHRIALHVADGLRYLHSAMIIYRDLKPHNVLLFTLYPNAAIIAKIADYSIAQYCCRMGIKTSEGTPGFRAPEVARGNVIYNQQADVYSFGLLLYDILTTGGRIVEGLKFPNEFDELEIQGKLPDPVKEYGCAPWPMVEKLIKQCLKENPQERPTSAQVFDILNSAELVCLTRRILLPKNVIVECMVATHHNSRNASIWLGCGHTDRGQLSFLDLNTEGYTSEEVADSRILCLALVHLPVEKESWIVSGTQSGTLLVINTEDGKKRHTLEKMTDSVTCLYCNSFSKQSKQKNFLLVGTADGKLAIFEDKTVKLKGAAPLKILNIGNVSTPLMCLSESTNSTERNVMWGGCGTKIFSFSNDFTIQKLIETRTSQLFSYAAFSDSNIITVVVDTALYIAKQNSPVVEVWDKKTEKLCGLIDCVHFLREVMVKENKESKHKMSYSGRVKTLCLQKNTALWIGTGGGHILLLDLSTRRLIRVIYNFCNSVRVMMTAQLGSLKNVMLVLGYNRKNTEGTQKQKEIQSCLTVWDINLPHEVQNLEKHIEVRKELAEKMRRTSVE"}}, "data": [{"smiles": "C[C@H](NC(=O)c1c[nH]c2ncc(C3CC3)nc12)C(C)(C)C", "note": "[A1, UNC-BE4-017]", "values": [{"measurement": "Compound A1 PoC", "setting": "NUAK1", "value": 4.1, "unit": "%"}, {"measurement": "Compound A1 PoC", "setting": "JAK3", "value": 0.7, "unit": "%"}, {"measurement": "Compound A1 PoC", "setting": "CSNK2A1", "value": 0, "unit": "%"}, {"measurement": "Compound A1 PoC", "setting": "LRRK2 (G2019S)", "value": 7.5, "unit": "%"}]}]}
